Assay results as given in PubChem BioAssay AID1963442 (Molecular Pharmacology Branch, DTP, NCI, 2024).
Several values for one entry are separate records, joined by “and”; a condition that tells them apart may be missing. Equal values may be shown once.

System: MPNST complex spheroid with HUVEC/MSC, growth, % test/control
Assay: Anticancer human tumor MPNST cell line growth inhibition [Asc];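 further: compounds left on spheroids for seven days before reading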
Conditions: for viability, T/C: stronger effect = lower value
In short: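 Tumor cells were grown as multicellular spheroids with stromal HUVEC and mesenchymal stem cells and treated singly or in combination. Concentrations fell in half-log steps from the clinical Cmax, or from 10 microM where none was known.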

[1] = curve of first compound, second compound 0.03 µM
[2] = curve of first compound, second compound 0.0949 µM
[3] = curve of first compound, second compound 0.3 µM
[4] = curve of first compound, second compound 0.949 µM
[5] = curve of first compound, second compound 3 µM

With COc1c(OCCCN2CCOCC2)ccc2c3n(c(=NC(=O)c4cnc(N)nc4)nc12)CCN3 + CNC(C)C(=O)NC1CN(S(=O)(=O)c2cccc(S(=O)(=O)N3CCC4CCC(C(=O)NC(c5ccccc5)c5ccccc5)N4C(=O)C(NC(=O)C(C)NC)C3)c2)CCC2CCC(C(=O)NC(c3ccccc3)c3ccccc3)N2C1=O the IC50 (curve of first compound, second compound 0.00316 µM) was 17.1 nM, the IC50 (curve of first compound, second compound 0.01 µM) was 29.4 nM and the IC50 (curve of first compound, second compound 0.0316 µM) was 24.6 nM. The IC50 (curve of first compound, second compound 0.1 µM) was 15.6 nM, the IC50 (curve of first compound, second compound 0.316 µM) was 13.2 nM and the IC50 (curve of first compound, second compound 1 µM) was 10 nM. It also gave a viability, T/C (second compound 0.00316 µM, first compound 0.00316 µM) of 89.4%, a viability, T/C (second compound 0.00316 µM, first compound 0.01 µM) of 66.3% and a viability, T/C (second compound 0.00316 µM, first compound 0.0316 µM) of 28.6%. The viability, T/C (second compound 0.00316 µM, first compound 0.1 µM) was 24.9%, the viability, T/C (second compound 0.00316 µM, first compound 0.316 µM) was 9.54% and the viability, T/C (second compound 0.00316 µM, first compound 1 µM) was 5.55%. It also gave a viability, T/C (second compound 0.01 µM, first compound 0.00316 µM) of 81.5%, a viability, T/C (second compound 0.01 µM, first compound 0.01 µM) of 71.1% and a viability, T/C (second compound 0.01 µM, first compound 0.0316 µM) of 49.9%. It also gave a viability, T/C (second compound 0.01 µM, first compound 0.1 µM) of 18.6%, a viability, T/C (second compound 0.01 µM, first compound 0.316 µM) of 10.2% and a viability, T/C (second compound 0.01 µM, first compound 1 µM) of 5.07%. It also gave a viability, T/C (second compound 0.0316 µM, first compound 0.00316 µM) of 104%, a viability, T/C (second compound 0.0316 µM, first compound 0.01 µM) of 61.6% and a viability, T/C (second compound 0.0316 µM, first compound 0.0316 µM) of 57.1%. The viability, T/C (second compound 0.0316 µM, first compound 0.1 µM) was 19.4%, the viability, T/C (second compound 0.0316 µM, first compound 0.316 µM) was 9.82% and the viability, T/C (second compound 0.0316 µM, first compound 1 µM) was 4.9%. The viability, T/C (second compound 0.1 µM, first compound 0.00316 µM) was 90.1%, the viability, T/C (second compound 0.1 µM, first compound 0.01 µM) was 59.8% and the viability, T/C (second compound 0.1 µM, first compound 0.0316 µM) was 32.2%. For the same compound, the viability, T/C (second compound 0.1 µM, first compound 0.1 µM) was 25.8%, the viability, T/C (second compound 0.1 µM, first compound 0.316 µM) was 13.8% and the viability, T/C (second compound 0.1 µM, first compound 1 µM) was 5.12%. It also gave a viability, T/C (second compound 0.316 µM, first compound 0.00316 µM) of 78.7%, a viability, T/C (second compound 0.316 µM, first compound 0.01 µM) of 52.2% and a viability, T/C (second compound 0.316 µM, first compound 0.0316 µM) of 39.3%. The viability, T/C (second compound 0.316 µM, first compound 0.1 µM) was 19.8%, the viability, T/C (second compound 0.316 µM, first compound 0.316 µM) was 11.1% and the viability, T/C (second compound 0.316 µM, first compound 1 µM) was 5.92%. For the same compound, the viability, T/C (second compound 1 µM, first compound 0.00316 µM) was 65.7%, the viability, T/C (second compound 1 µM, first compound 0.01 µM) was 51% and the viability, T/C (second compound 1 µM, first compound 0.0316 µM) was 32%. It also gave a viability, T/C (second compound 1 µM, first compound 0.1 µM) of 21.2%, a viability, T/C (second compound 1 µM, first compound 0.316 µM) of 10.2% and a viability, T/C (second compound 1 µM, first compound 1 µM) of 5.66%.
Work on NC(=O)C(=Cn1cnc(-c2cc(C(F)(F)F)cc(C(F)(F)F)c2)n1)c1cncnc1 + CCN1C(C(=O)NC23CCC(C(=O)O)(CC2)CC3)C(c2cccc(Cl)c2F)C2(C(=O)Nc3cc(Cl)ccc32)C12CCCCC2 yielded an IC50 [1] of 172 nM, an IC50 [2] of 139 nM and an IC50 [3] of 198 nM. The IC50 [4] was 88 nM, the IC50 [5] was 80.8 nM and the viability, T/C (second compound 0.03 µM, first compound 0.000949 µM) was 64.2%. It also gave a viability, T/C (second compound 0.03 µM, first compound 0.003 µM) of 78.6%, a viability, T/C (second compound 0.03 µM, first compound 0.00949 µM) of 66.9% and a viability, T/C (second compound 0.03 µM, first compound 0.03 µM) of 64%. The viability, T/C (second compound 0.03 µM, first compound 0.0949 µM) was 56.2%, the viability, T/C (second compound 0.03 µM, first compound 0.3 µM) was 43.7% and the viability, T/C (second compound 0.0949 µM, first compound 0.000949 µM) was 75%. It also gave a viability, T/C (second compound 0.0949 µM, first compound 0.003 µM) of 90.7%, a viability, T/C (second compound 0.0949 µM, first compound 0.00949 µM) of 79.7% and a viability, T/C (second compound 0.0949 µM, first compound 0.03 µM) of 71%. The viability, T/C (second compound 0.0949 µM, first compound 0.0949 µM) was 55.5%, the viability, T/C (second compound 0.0949 µM, first compound 0.3 µM) was 40.1% and the viability, T/C (second compound 0.3 µM, first compound 0.000949 µM) was 90.9%. It also gave a viability, T/C (second compound 0.3 µM, first compound 0.003 µM) of 99.1%, a viability, T/C (second compound 0.3 µM, first compound 0.00949 µM) of 90.9% and a viability, T/C (second compound 0.3 µM, first compound 0.03 µM) of 79.3%. It also gave a viability, T/C (second compound 0.3 µM, first compound 0.0949 µM) of 64.8%, a viability, T/C (second compound 0.3 µM, first compound 0.3 µM) of 42% and a viability, T/C (second compound 0.949 µM, first compound 0.000949 µM) of 95.2%. It also gave a viability, T/C (second compound 0.949 µM, first compound 0.003 µM) of 97%, a viability, T/C (second compound 0.949 µM, first compound 0.00949 µM) of 89.3% and a viability, T/C (second compound 0.949 µM, first compound 0.03 µM) of 71.6%. The viability, T/C (second compound 0.949 µM, first compound 0.0949 µM) was 47.8%, the viability, T/C (second compound 0.949 µM, first compound 0.3 µM) was 42.5% and the viability, T/C (second compound 3 µM, first compound 0.000949 µM) was 93.9%. The viability, T/C (second compound 3 µM, first compound 0.003 µM) was 77.8%, the viability, T/C (second compound 3 µM, first compound 0.00949 µM) was 66.1% and the viability, T/C (second compound 3 µM, first compound 0.03 µM) was 56%. It also gave a viability, T/C (second compound 3 µM, first compound 0.0949 µM) of 50.7% and a viability, T/C (second compound 3 µM, first compound 0.3 µM) of 42.6%.
In the case of O=C(c1cc(Cc2n[nH]c(=O)c3ccccc23)ccc1F)N1CCN(C(=O)C2CC2)CC1, the viability, T/C (compound 0.0316 µM) is reported as 89.3% and 114% and 79.2%, the viability, T/C (compound 0.1 µM) is reported as 103% and 78.6% and 69.5% and the viability, T/C (compound 0.316 µM) is reported as 109% and 60.3% and 96.9%. For the same compound, the viability, T/C (compound 1 µM) was 83.9% and 63.7% and 82.7%, the viability, T/C (compound 3.16 µM) was 71.8% and 70.9% and 40.7% and the viability, T/C (compound 10 µM) was 77.1% and 48.1% and 34.8%. The IC50 (curve of compound) was > 10000 nM and 2440 nM.
In the case of COc1c(OCCCN2CCOCC2)ccc2c3n(c(=NC(=O)c4cnc(N)nc4)nc12)CCN3 + CCN1C(C(=O)NC23CCC(C(=O)O)(CC2)CC3)C(c2cccc(Cl)c2F)C2(C(=O)Nc3cc(Cl)ccc32)C12CCCCC2, the IC50 [1] is reported as 25.4 nM, the IC50 [2] is reported as 29.7 nM and the IC50 [3] is reported as 38.4 nM. For the same compound, the IC50 [4] was 27.2 nM, the IC50 [5] was 20.9 nM and the viability, T/C (second compound 0.03 µM, first compound 0.00316 µM) was 66.2%. For the same compound, the viability, T/C (second compound 0.03 µM, first compound 0.01 µM) was 58.8%, the viability, T/C (second compound 0.03 µM, first compound 0.0316 µM) was 47% and the viability, T/C (second compound 0.03 µM, first compound 0.1 µM) was 37.1%. The viability, T/C (second compound 0.03 µM, first compound 0.316 µM) was 25.9%, the viability, T/C (second compound 0.03 µM, first compound 1 µM) was 14.6% and the viability, T/C (second compound 0.0949 µM, first compound 0.00316 µM) was 75.6%. It also gave a viability, T/C (second compound 0.0949 µM, first compound 0.01 µM) of 58.2%, a viability, T/C (second compound 0.0949 µM, first compound 0.0316 µM) of 51.5% and a viability, T/C (second compound 0.0949 µM, first compound 0.1 µM) of 36.5%. The viability, T/C (second compound 0.0949 µM, first compound 0.316 µM) was 30.3%, the viability, T/C (second compound 0.0949 µM, first compound 1 µM) was 17.4% and the viability, T/C (second compound 0.3 µM, first compound 0.00316 µM) was 77.3%. The viability, T/C (second compound 0.3 µM, first compound 0.01 µM) was 64.1%, the viability, T/C (second compound 0.3 µM, first compound 0.0316 µM) was 55% and the viability, T/C (second compound 0.3 µM, first compound 0.1 µM) was 36.5%. For the same compound, the viability, T/C (second compound 0.3 µM, first compound 0.316 µM) was 24.4%, the viability, T/C (second compound 0.3 µM, first compound 1 µM) was 17.4% and the viability, T/C (second compound 0.949 µM, first compound 0.00316 µM) was 81.3%. For the same compound, the viability, T/C (second compound 0.949 µM, first compound 0.01 µM) was 60.4%, the viability, T/C (second compound 0.949 µM, first compound 0.0316 µM) was 52.2% and the viability, T/C (second compound 0.949 µM, first compound 0.1 µM) was 33.2%. It also gave a viability, T/C (second compound 0.949 µM, first compound 0.316 µM) of 21%, a viability, T/C (second compound 0.949 µM, first compound 1 µM) of 17.3% and a viability, T/C (second compound 3 µM, first compound 0.00316 µM) of 74%. The viability, T/C (second compound 3 µM, first compound 0.01 µM) was 62%, the viability, T/C (second compound 3 µM, first compound 0.0316 µM) was 43% and the viability, T/C (second compound 3 µM, first compound 0.1 µM) was 28%. For the same compound, the viability, T/C (second compound 3 µM, first compound 0.316 µM) was 19.1% and the viability, T/C (second compound 3 µM, first compound 1 µM) was 15.6%.
